The source of these data is patent US20260035367A1 (Celgene Corporation, priority 2021, published 2026).

Where two headings read alike, the source gives them in different places.

Test [1] has as its target T1, Recombinant human PKC-theta (His-tagged 362-706) (Homo sapiens, UniProt Q04759).
T1 construct: Recombinant human PKC-theta (His-tagged 362-706); His
The test is described as follows: PKC-theta inhibition assay (HTRF KinEASE kit). To be noted: ATP 6.5 μM, STK substrate 525 nM. Format: biochemical. The protocol:
PKC-theta and PKC-delta biochemical activities were measured using the PKC-theta HTRF KinEASEkit kit, according to manufacturer's instructions (Cisbio, catalogue number 61ST1PEJ). Briefly, the kinase buffer component of the kit was supplemented with 10 mM MgCl2, 1 mM DTT and 0.1% Tween 20. […] The streptavidin_XL665 and STK antibody-cryptate detection reagents were mixed according to the manufacturer's instructions. Test compounds were diluted in DMSO in a series of 10 semi-log step doses; 10 nL of each compound dose were dispensed in 384 well plates. […] The reaction was started by addition of the substrate and ATP and incubated at 25° C. for 30 minutes or 20 minutes for the PKC-theta and PKC-delta assays, respectively. The detection reagents were added, and the plate was incubated in the dark for 2 hours. […] The ratio of acceptor and donor emission signals was calculated for each well. Percent inhibition values were calculated from the HTRF ratios at different doses and fitted to a 4-parameter logistic curve to determine IC50 values (see Table 2).
In general terms: In TR-FRET formats the signal depends on donor and acceptor labels being close together.

Test [2] has as its target T2, Recombinant human PKC-delta (His-tagged 345-676) (Homo sapiens, UniProt Q05655).
T2 construct: PKC-delta (His-tagged 345-676); His
Description: PKC-delta inhibition assay (HTRF KinEASE kit). It counts as biochemical. To be noted: ratio, PKC-theta vs PKC-delta HTRF; for PKC-theta/PKC-delta selectivity (binned): binned A to G.

For test [3], the system named is IL-2 secretion by human effector memory T cells (TEM). Description: Effector memory T cells IL-2 release assay (CD3/CD28 stimulation, HTRF IL-2 detection). To be noted: Homo sapiens, T-cell, 24 h. It counts as cell-based. As for the experimental part:
Test compound-mediated inhibition of NFκB signalling in T cells was assessed by quantification of the IL-2 secretion by human effector memory T cells (TEM) upon treatment and stimulation. Human TEM cells were isolated from buffy coats of healthy donors obtained from the French blood bank.
Finally, 10 doses of test compound, originally prepared in DMSO by serial semi-log step dilution, were also added to cells in triplicate wells. Final DMSO concentration in wells was 0.1% in a total volume of 100 μL complete medium. Plates were incubated for 24 h at 37° C. in 5% CO2 atmosphere. After incubation, cell suspensions were centrifuged at 400×g and culture supernatants were recovered and stored at −80° C. […] IL-2 levels were determined in cell supernatants using an HTRF human IL-2 detection kit (Cisbio, cat #62HIL02PEH).

Setting [4] is: binned A to H, read-out: PKC-theta HTRF pIC50 (binned) (converted).
Setting [5] is: read-out: PKC-theta HTRF pIC50 (converted).
[6] abbreviates: binned A to G, read-out: PKC-theta IL2 pIC50 (binned) (converted).
Where [7] appears, read: read-out: PKC-theta IL2 pIC50 (converted).

T1 sequence (Q04759 362-706): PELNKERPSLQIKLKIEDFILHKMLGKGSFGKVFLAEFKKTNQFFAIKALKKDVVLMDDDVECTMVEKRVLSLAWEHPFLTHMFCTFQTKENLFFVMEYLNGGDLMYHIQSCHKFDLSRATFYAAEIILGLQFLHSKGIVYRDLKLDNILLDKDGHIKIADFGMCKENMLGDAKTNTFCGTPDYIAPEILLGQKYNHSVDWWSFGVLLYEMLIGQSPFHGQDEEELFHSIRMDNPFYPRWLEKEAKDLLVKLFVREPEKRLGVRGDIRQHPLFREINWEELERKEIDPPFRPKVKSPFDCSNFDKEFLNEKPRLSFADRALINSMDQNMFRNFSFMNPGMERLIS
T2 sequence (Q05655 345-676): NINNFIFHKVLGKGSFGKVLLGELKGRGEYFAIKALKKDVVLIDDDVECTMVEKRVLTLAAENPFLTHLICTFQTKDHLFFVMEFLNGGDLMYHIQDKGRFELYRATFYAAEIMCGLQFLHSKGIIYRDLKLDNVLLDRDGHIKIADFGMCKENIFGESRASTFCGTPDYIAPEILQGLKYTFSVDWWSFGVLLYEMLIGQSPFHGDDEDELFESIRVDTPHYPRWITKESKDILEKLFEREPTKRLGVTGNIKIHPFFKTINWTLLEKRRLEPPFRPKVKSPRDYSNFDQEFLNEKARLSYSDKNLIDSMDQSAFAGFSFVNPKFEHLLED

`CC[C@H]1CN(c2cccc(-c3ccnc4c3C(C)(CC)C(=O)N4)n2)CCN1` (stereo partly drawn) [Example 148]: the IC50 in test [1] (setting [4]) is 0.01 to 0.0316 µM; in test [1] (setting [5]), 0.02 µM; in test [3] (setting [6]), 0.1 to 0.316 µM; in test [3] (setting [7]), 0.158 µM. Further, the PKC-theta/PKC-delta selectivity in test [2] is recorded as 3. The “PKC-theta/PKC-delta selectivity (binned)” value in test [2] is “F (a ratio of between 1 and 5)”.

As to `C[C@H]1CNCCN1c1cc(-c2ccnc3c2C(C)(C)C(=O)N3)ccn1` [Example 31], the IC50 is 0.316 to 1 µM in test [1] (setting [4]), 0.501 µM in test [1] (setting [5]), above 1 µM in test [3] (setting [6]) and 6.31 µM in test [3] (setting [7]). Moreover, the PKC-theta/PKC-delta selectivity in test [2] stood at 1. The “PKC-theta/PKC-delta selectivity (binned)” value in test [2] was “F (a ratio of between 1 and 5)”.

As for `COC1(C)C(=O)Nc2nccc(-c3cc(F)cc(N4CCNCC4)c3)c21` (stereo not drawn) [Example 57], the IC50 in test [1] (setting [4]) is 0.0316 to 0.1 µM; in test [1] (setting [5]), 0.0501 µM; in test [3] (setting [6]), 0.316 to 1 µM; in test [3] (setting [7]), 0.631 µM. Moreover, the PKC-theta/PKC-delta selectivity in test [2] came out at 6. In addition, the “PKC-theta/PKC-delta selectivity (binned)” value in test [2] is “E (a ratio of between 5 and 10)”.

`C[C@@H]1CN(c2cc(C(C)(F)F)cc(-c3ccnc4c3C(C)(C)C(=O)N4)n2)CCCN1` [Example 204]: the IC50 in test [1] (setting [4]) was 0.00316 to 0.01 µM; in test [1] (setting [5]), 0.00631 µM; in test [3] (setting [6]) it was 0.1 to 0.316 µM; in test [3] (setting [7]) it was 0.126 µM. In test [2], the PKC-theta/PKC-delta selectivity is 24. The “PKC-theta/PKC-delta selectivity (binned)” value in test [2] was “C (a ratio of between 20 and 30)”.

As for `CC1(C)C(=O)Nc2nccc(-c3cc(C(F)(F)F)cc(N4CC5CC4CN5)n3)c21` (stereo not drawn) [Example 85], the IC50 is 0.01 to 0.0316 µM in test [1] (setting [4]), 0.02 µM in test [1] (setting [5]), 0.316 to 1 µM in test [3] (setting [6]) and 0.316 µM in test [3] (setting [7]). The PKC-theta/PKC-delta selectivity in test [2] was determined as 20. In test [2], the “PKC-theta/PKC-delta selectivity (binned)” value is “D (a ratio of between 10 and 20)”.

As for `CC[C@]1(C)C(=O)Nc2nccc(-c3cc(C(F)(F)F)cc(N4CCN[C@@H](C)C4)n3)c21` (single isomer, unassigned) [Example 153], the IC50 in test [1] (setting [4]) is 0.001 to 0.00316 µM; in test [1] (setting [5]), 0.00316 µM; in test [3] (setting [6]), 0.01 to 0.0316 µM; in test [3] (setting [7]), 0.0316 µM. Moreover, the PKC-theta/PKC-delta selectivity in test [2] is 13. In addition, the “PKC-theta/PKC-delta selectivity (binned)” value in test [2] is “D (a ratio of between 10 and 20)”.

With `CC1(C)C(=O)Nc2nccc(-c3cc(C(F)(F)F)cc(N4CCNCC4C(F)F)n3)c21` (stereo not drawn) [Example 160], the IC50 in test [1] (setting [4]) was 0.001 to 0.00316 µM; in test [1] (setting [5]), 0.00316 µM; in test [3] (setting [6]), 0.0316 to 0.1 µM; in test [3] (setting [7]), 0.1 µM. The PKC-theta/PKC-delta selectivity in test [2] worked out at 9. In test [2], the “PKC-theta/PKC-delta selectivity (binned)” value is “E (a ratio of between 5 and 10)”.

With `CC1(C)C(=O)Nc2nccc(-c3cccc(N4CCNCC4)c3Cl)c21` [Example 48], the IC50 is above 1 µM in test [1] (setting [4]), 1.58 µM in test [1] (setting [5]), above 1 µM in test [3] (setting [6]) and 10 µM in test [3] (setting [7]). Moreover, the PKC-theta/PKC-delta selectivity in test [2] is on record as 1. Besides, the “PKC-theta/PKC-delta selectivity (binned)” value in test [2] is reported as “G (a ratio of 0 to 1)”.

Consider `C[C@@H]1CN(c2cc(Cl)cc(-c3ccnc4c3C(C)(O)C(=O)N4)c2)CCN1` (stereo partly drawn) [Example 76], for which the IC50 in test [1] (setting [4]) was 0.0316 to 0.1 µM; in test [1] (setting [5]) it was 0.0501 µM; in test [3] (setting [6]), 0.316 to 1 µM; in test [3] (setting [7]), 0.794 µM. Further, the PKC-theta/PKC-delta selectivity in test [2] is 11. Further, the “PKC-theta/PKC-delta selectivity (binned)” value in test [2] is “D (a ratio of between 10 and 20)”.

Regarding `O=c1[nH]c2nccc(-c3cc(N4CCNCC4)ccn3)c2[nH]1` [Example 16], the IC50 in test [1] (setting [4]) was above 1 µM; in test [1] (setting [5]), 6.31 µM; in test [3] (setting [6]), above 1 µM; in test [3] (setting [7]), 10 µM. Further, the PKC-theta/PKC-delta selectivity in test [2] is given as 1. For the same molecule, the “PKC-theta/PKC-delta selectivity (binned)” value in test [2] is on record as “G (a ratio of 0 to 1)”.

Turning to `C[C@@H]1CN(c2cccc(-c3ccnc4[nH]c(=O)[nH]c34)c2)C[C@H](C)N1` [Example 11], the IC50 in test [1] (setting [4]) is above 1 µM; in test [1] (setting [5]), 2.51 µM; in test [3] (setting [6]), above 1 µM; in test [3] (setting [7]), 6.31 µM. The PKC-theta/PKC-delta selectivity in test [2] is given as 4. The “PKC-theta/PKC-delta selectivity (binned)” value in test [2] is “F (a ratio of between 1 and 5)”.

Turning to `C[C@H]1CNCCN1c1cc(F)cc(-c2ccnc3c2C(C)(O)C(=O)N3)c1` (stereo partly drawn) [Example 58], the IC50 was 0.01 to 0.0316 µM in test [1] (setting [4]), 0.0126 µM in test [1] (setting [5]), 0.316 to 1 µM in test [3] (setting [6]) and 0.316 µM in test [3] (setting [7]). The PKC-theta/PKC-delta selectivity in test [2] is given as 7. Moreover, in test [2], the “PKC-theta/PKC-delta selectivity (binned)” value is “E (a ratio of between 5 and 10)”.

On to `C[C@@H]1CN(c2cc(C(F)(F)F)cc(-c3ccnc4c3C(C)(C)C(=O)N4)n2)[C@@H](C)CN1` [Example 117], for which the IC50 was 0.01 to 0.0316 µM in test [1] (setting [4]), 0.0126 µM in test [1] (setting [5]), 0.1 to 0.316 µM in test [3] (setting [6]) and 0.2 µM in test [3] (setting [7]). In test [2], the PKC-theta/PKC-delta selectivity came to 10. In test [2], the “PKC-theta/PKC-delta selectivity (binned)” value was “D (a ratio of between 10 and 20)”.

`CC[C@@]1(O)C(=O)Nc2nccc(-c3cc(C(F)(F)F)cc(N4CCNC[C@H]4C)n3)c21` (single isomer, unassigned) [Example 166]: the IC50 in test [1] (setting [4]) was 0.001 to 0.00316 µM; in test [1] (setting [5]) it was 0.00316 µM; in test [3] (setting [6]), 0.01 to 0.0316 µM; in test [3] (setting [7]), 0.0316 µM. The PKC-theta/PKC-delta selectivity in test [2] came out at 6. In addition, the “PKC-theta/PKC-delta selectivity (binned)” value in test [2] is “E (a ratio of between 5 and 10)”.

For the molecule `C[C@@H]1NCCN(c2cc(C(F)(F)F)cc(-c3ccnc4c3[C@](C)(O)C(=O)N4)n2)[C@@H]1C` [Example 126], the IC50 was 0.001 to 0.00316 µM in test [1] (setting [4]), 0.00126 µM in test [1] (setting [5]), 0.01 to 0.0316 µM in test [3] (setting [6]) and 0.0251 µM in test [3] (setting [7]). For the same molecule, the PKC-theta/PKC-delta selectivity in test [2] worked out at 12. Moreover, the “PKC-theta/PKC-delta selectivity (binned)” value in test [2] is “D (a ratio of between 10 and 20)”.

On to `CN(C)Cc1cccc(-c2ccnc3[nH]c(=O)[nH]c23)c1` [Example 3], for which the IC50 in test [1] (setting [4]) is 0.316 to 1 µM; in test [1] (setting [5]), 0.794 µM; in test [3] (setting [6]) it was above 1 µM; in test [3] (setting [7]), 5.01 µM. Moreover, the PKC-theta/PKC-delta selectivity in test [2] was 1. Besides, the “PKC-theta/PKC-delta selectivity (binned)” value in test [2] was “F (a ratio of between 1 and 5)”.

As to `C[C@@H]1CCN(c2cc(C(F)(F)F)cc(-c3ccnc4c3C(C)(C)C(=O)N4)n2)CCN1` [Example 184], the IC50 was 0.01 to 0.0316 µM in test [1] (setting [4]), 0.01 µM in test [1] (setting [5]), 0.1 to 0.316 µM in test [3] (setting [6]) and 0.251 µM in test [3] (setting [7]). Also, the PKC-theta/PKC-delta selectivity in test [2] is reported as 20. For the same molecule, in test [2], the “PKC-theta/PKC-delta selectivity (binned)” value was “C (a ratio of between 20 and 30)”.

Turning to `O=c1[nH]c2nccc(-c3cccc(N4CCNCC4)n3)c2[nH]1` [Example 14], the IC50 was 0.1 to 0.316 µM in test [1] (setting [4]), 0.1 µM in test [1] (setting [5]), 0.316 to 1 µM in test [3] (setting [6]) and 0.631 µM in test [3] (setting [7]). Also, the PKC-theta/PKC-delta selectivity in test [2] is on record as 2. In addition, the “PKC-theta/PKC-delta selectivity (binned)” value in test [2] was “F (a ratio of between 1 and 5)”.

In the case of `CC1(C)CN(c2cc(Cl)cc(-c3ccnc4c3[C@](C)(O)C(=O)N4)n2)CCN1` (single isomer, unassigned) [Example 133], the IC50 in test [1] (setting [4]) was 0.001 to 0.00316 µM; in test [1] (setting [5]) it was 0.00251 µM; in test [3] (setting [6]), 0.0316 to 0.1 µM; in test [3] (setting [7]), 0.0501 µM. Further, the PKC-theta/PKC-delta selectivity in test [2] was found to be 10. Besides, in test [2], the “PKC-theta/PKC-delta selectivity (binned)” value is “D (a ratio of between 10 and 20)”.
